Values quoted from earlier work as cited in patent US20250261634A1, “LIQUID HERBICIDAL COMPOSITIONS” (priority 2021, published 2025).

Tested on: weeds
Conditions: in vivo

For CP(=O)(O)CC[C@H](N)C(=O)O (single isomer, unassigned) [L-isomer], the “herbicidal activity relative to the racemate” value is given as “twice that of the racemate”.
